According to patent publication US20070224200A1, “Gm3 Synthase as a Therapeutic Target in Microvascular Complications of Diabetes” (priority 2004, published 2007):

Tests used:
mesangial cells (RMC) = assay: Treatment with exogenous gangliosides, proliferation of mesangial cells; type: cell-based, rat; settings: 50 μM, 4 days, total proteins
Protocol: (§1) To evaluate the effect of exogenous gangliosides on the proliferation of BRP and RMC, the cells were cultivated in 96-well plates. Exogenous glycolipids GM3, GM2, GM1 and GD1a, glucosylceramide and lactosylceramide (Matreya) were added to the complete culture medium in a final concentration of 50 μM in the form of complexes with BSA in a 1:1 ratio in DMEM/10 mM Hepes, pH 7.4. At the end of the treatment, the cells were washed twice with PBS and lysed for 30 minutes at 37° C. in 50 μl of a Ripa lysis buffer (PBS 10 mM, NP40 1% (Pierce, Perbio Science, Brebières, France), sodium deoxycholate 0.5%, SDS 0.1%, protease inhibitors 10 μl/ml). As the number of cells in our experiments was correlated with the total protein concentrations (cf. FIG. 1), the total proteins were measured using the BCA protein test (Pierce) in order to evaluate the cell proliferation.

pericytes (BRP) [1] = assay: Treatment with exogenous gangliosides, proliferation of pericytes; type: cell-based, bovine; settings: 50 μM, 7 days, total proteins
Protocol: as §1

GM3 synthase [2] = assay: GM3 synthase activity in RMC transfected with GM3 synthase siRNA; type: cell-based, rat
Protocol: (§2) At the end of the treatment, the cells were washed with PBS, incubated for 20 minutes at 4° C. in 50 μl of lysis buffer (20 mM sodium cacodylate, pH 6.6 (Sigma), 0.2% of Triton X-100, 1 mM EDTA, 10 μl/ml of protease inhibitors, Calbiochem, La Jolla, Calif., United States) and then collected by scraping. Four dishes of BRP (about 2-3×10^6 cells) and three dishes of RMC (about 3-6×10^6 cells) were pooled. The cell lysates were centrifuged at 10,000 g for 5 minutes and the proteins in the supernatants were used to measure the GM3 synthase activity. The glomerular residues were mechanically homogenised with a syringe in 25 mM Hepes containing 1 mM EDTA and 10 μl/ml of protease inhibitors. […]
To block the GM3 synthase activity, RMC were cultivated in 6-well culture plates up to 30% confluence and then transfected with an interfering RNA (siRNA) specific for GM3 synthase, which was designed against a rat cDNA sequence (Ambion, Huntingdon, UK) using an Oligofectamine reagent (Invitrogen Corporation). […] After 72 h of transfection, the GM3 synthase activity was measured on homogenates of transfected cells. The proliferation was then evaluated on the cells transfected with the siRNA. […] The cells were then washed twice with PBS and lysed in a Ripa lysis buffer and the proteins were measured in order to evaluate the cell proliferation.

RMC = assay: Proliferation of siRNA-transfected RMC treated with AGE; type: cell-based, rat; settings: 400 nM siRNA, then 3 μM AGE 3 days, total proteins
Protocol: To block the GM3 synthase activity, RMC were cultivated in 6-well culture plates up to 30% confluence and then transfected with an interfering RNA (siRNA) specific for GM3 synthase, which was designed against a rat cDNA sequence (Ambion, Huntingdon, UK) using an Oligofectamine reagent (Invitrogen Corporation). The GM3 synthase antisense sequence used was GGGUUAUUCUGAACAUGUUtt (SEQ ID No: 5). In preliminary experiments, a dose-response study was carried out by transfecting the cells with increasing concentrations of siRNA (0-800 nM). After 72 h of transfection, the GM3 synthase activity was measured on homogenates of transfected cells. The proliferation was then evaluated on the cells transfected with the siRNA. For this purpose, 24 hours after transfection with 400 nM siRNA, the cells were treated with 3 μM BSA control or AGE (3 days). The cells were then washed twice with PBS and lysed in a Ripa lysis buffer and the proteins were measured in order to evaluate the cell proliferation.

[3] = tested on: gangliosides in mesangial cells (RMC); assay: Ganglioside profile in mesangial cells treated with AGE (HPTLC); type: cell-based, rat; settings: 3 μM AGE, resorcinol staining
Protocol: (§3) The AGE and the BSA control (final concentration of 3 μM) were added to the culture medium 24 hours after inoculation. Each cell type was treated for one passage (about 7 days for the BRP and 4 days for the RMC). The culture medium was replaced with a fresh medium every two days.
(§4) For metabolic labelling of the gangliosides, 0.2 μCi/ml or 1 μCi/ml of [^14C(U)]-D-galactose (329.5 mCi/mmol) (PerkinElmer Life Sciences, Boston, Mass.) was added to the culture medium overnight for the labelling experiments with a high specific activity (GM2 and GM1 measuring experiment). The cells (5-8×10^5 pericytes or 12-20×10^5 mesangial cells) were then harvested by trypsinisation and washed three times in PBS. The gangliosides were extracted from the cell residues by the method described by Bouchon et al. (Bouchon et al., 1990), modified by Natalizio et al. (Natalizio et al., 2002). Briefly, the cell residues were dispersed in 2 ml of chloroform (C)/methanol (M) (1:1, v/v), mixed vigorously and extracted overnight at 4° C. After centrifugation, the residues were extracted twice with 2 ml of the same solvent. The pooled extracts of total lipids were dried by evaporation and separated with the aid of a 1 mM C/M/PBS solution (10:10:7, v/v/v). The upper phases, containing the gangliosides, were then desalted on a C18 silica gel column (Waters Corporation, Milford, Mass.) and analysed by HPTLC (Merck, Darnstadt, Germany). The plates were developed in 0.2% C/M/CaCl2 (55:45:10, v/v/v). The gangliosides were visualised by autoradiography using a phosphorus screen and a Storm 820 (Molecular Dynamics, Amersham Pharmacia Biotech, Piscataway, United States) and by labelling with resorcinol (specific stain for gangliosides: resorcinol 0.3% (Sigma), CuSO4 0.03%, HCl 30%) using an Image Master VDS-CL (Amersham Pharmacia Biotech). Quantification was performed using an Image Quant (Molecular Dynamics). As GT1b was absent from the ganglioside profiles of both the BRP and the RMC, it was added to the samples as an internal standard prior to lipid extraction.

[4] = tested on: renal mesangial cells (RMC); assay: AGE effect on proliferation of renal mesangial cells (cell count, total proteins); type: cell-based, rat; settings: 3 μM AGE, 4 days
Text: Rat renal mesangial cells (RMC) were obtained from purified glomeruli of young male Wistar rats (Charles River, l'Arbresle, France). Briefly, cortex fragments were isolated from rat kidneys freshly removed under sterile conditions. Small pieces were mechanically forced through a 230 μm mesh with HBSS buffer. The glomeruli, passed through this mesh, were then forced through a 73.7 μm mesh. Finally, they were placed on a 70 μm mesh and placed in 6 cm dishes covered with fibronectin (4 dishes for 2 renal glomeruli) in DMEM supplemented with 20% of foetal bovine serum, 1% of glutamine and 1% of penicillin/streptomycin. After the attachment period, the excrescence of RMC from glomeruli occurred after three weeks and the cells were then cultivated to the fifth passage in order to remove the residual epithelial and endothelial cells. The RMC are characterised by morphological criteria (star shape, wick shape when they are confluent) and by positive labelling with vimentin, smooth muscle α-actin and Thy-1 antigen. […]
(§5) At the end of the treatment, the cells were harvested with trypsin and the cell residues were washed twice with a phosphate buffered saline solution (iced PBS) (Sigma). For each sample, one aliquot of cells was counted using a haemocytometer in order to determine the number of cells. […]

[5] = tested on: gangliosides in pericytes (BRP); assay: Ganglioside profile in pericytes treated with AGE (HPTLC); type: cell-based, bovine; settings: 3 μM AGE
Protocol: as §3, §4

GM3 synthase [6] = assay: GM3 synthase activity in homogenates of mesangial cells treated with AGE; type: cell-based, rat; settings: 3 μM AGE, 4 days, vs BSA control
Protocol: as §3
as §2, with “inhibitors. The homogenates were then centrifuged at 1000 g for 2 minutes and the postnuclear supernatant was used to measure the GM3 synthase activity. Equivalent amounts of proteins for each sample (about 500 μg for the cells and 100 μg for the glomeruli) were used to perform the test.” for “inhibitors.”

pericytes (BRP) [7] = assay: AGE effect on proliferation of pericytes (cell count, total proteins); type: cell-based, bovine; settings: 3 μM AGE, 7 days
Text: Bovine retinal pericytes (BRP) were isolated from bovine retinal micro-vessels as described previously (Lecomte et al., 1996). Briefly, the retinas were obtained by dissection under sterile conditions from enucleated bovine eyes obtained from a local abattoir. After the contaminating pigmented epithelial cells of the retina had been removed, the retinas (2 per culture dish) were sliced into small pieces and homogenised in a Dounce homogeniser in a Hanks balanced saline solution (Ca^2+/Mg^2+-free oxygenated HBSS supplemented with Hepes 10 mM, pH 7.4, antibiotics 1%, bovine serum albumin (BSA, Sigma, Saint-Quentin Fallavier, France) 0.5%). […] The BRP cultures were 100% pure, as characterised by their polygonal irregular morphology with pseudopodia and their growth into non-apposed cells, and as evaluated by positive labelling for both α1-actin and a specific glycolipid antigen (3G5 antibody) and by negative labelling for the von Willebrand factor expressed in the endothelial cells (Lecomte et al., 1996). […]
as §5

GM3 synthase [8] = assay: GM3 synthase activity in homogenates of pericytes treated with AGE; type: cell-based, bovine; settings: 3 μM AGE, 7 days, vs BSA control
Protocol: as §3
as §2, with “inhibitors. The homogenates were then centrifuged at 1000 g for 2 minutes and the postnuclear supernatant was used to measure the GM3 synthase activity. Equivalent amounts of proteins for each sample (about 500 μg for the cells and 100 μg for the glomeruli) were used to perform the test.” for “inhibitors.”

[9] = pericytes, resorcinol staining, vs BSA control

Substance: glucosylceramide
- effect on proliferation of mesangial cells (in words) (mesangial cells (RMC)): no effect
- effect on proliferation of pericytes (in words) (pericytes (BRP) [1]): no effect

Substance: α-N-acetyl-neuraminyl-2,3-β-D-galactosyl-1,4-β-D-glucosylceramide [GM3]
- effect on proliferation of mesangial cells (in words) (mesangial cells (RMC)): no significant effect
- effect on proliferation of pericytes (in words) (pericytes (BRP) [1]): weakly inhibited

Substance: lactosylceramide
- effect on proliferation of mesangial cells (in words) (mesangial cells (RMC)): no effect
- effect on proliferation of pericytes (in words) (pericytes (BRP) [1]): no effect

Substance: GGGUUAUUCUGAACAUGUUtt (guide GGGUUAUUCUGAACAUGUUTT; chemistry not given here) [GM3 synthase siRNA]
- inhibition of GM3 synthase activity (GM3 synthase [2]; RMC transfected with siRNA): 50%
- inhibition of GM3 synthase activity (in words) (GM3 synthase [2]; RMC, preliminary experiments, siRNA 0-800 nM, 72 h): effectively inhibited
- effects of AGE on the proliferation of the RMC (RMC): partially inhibited

Substance: AGE: prepared by incubating bovine serum albumin with 100 mM methylglyoxal at 37° C. for 50 hours
- GD1a levels [3]: not affected
- increase in GM3 ([3]; vs BSA control): 33%
- reduction of GD3 ([3]; vs BSA control): 30%
- reduction of the number of mesangial cells ([4]; cell count, vs BSA control): 40%
- total proteins ([4]; mesangial cells): decreased in correlation with the number of cells
- increase in GM2 ([5]; BRP, [14C]-D-galactose labelling, autoradiography): 55%
- increase in series a ganglioside GM1 [5, 9]: about 40%
- increase in series a ganglioside GM3 [5, 9]: about 40%
- reduction of series b ganglioside GD3 [5, 9]: 24%
- increase of GM3 synthase activity (factor) (GM3 synthase [6]): about 1.5
- reduction of the number of pericytes (pericytes (BRP) [7]; cell count, vs BSA control): 33%
- total proteins (pericytes (BRP) [7]; pericytes): decreased in correlation with the number of cells
- increase of GM3 synthase activity (factor) (GM3 synthase [8]): about 1.8
